Results from patent publication US9963464B2, “Macrocyclic compounds” (Bayer Pharma Aktiengesellschaft, priority 2014, dated 2018).
pIC50: −log10 of the molar value. Like-named read-outs stand apart in the source and are kept apart here.

Key:
CDK9/CycT1 = molecular target: T1, CDK9/CycT1 (Homo sapiens, UniProt P50750); test: CDK9/CycT1 high ATP kinase assay (TR-FRET, Method 1b); assay type: biochemical; details: for pIC50: Method 1b, 2 mM ATP; for Selectivity high ATP CDK9 over high ATP CDK2: IC50 (high ATP CDK2)/IC50 (high ATP CDK9): Methods 1b and 2b, minimal values where CDK9 IC50 is at the assay limit
T1 construct: Recombinant full-length His-tagged human CDK9 and CycT1; His; purchased Invitrogen PV4131; host or cells: insect cells
Description: 1b. CDK9/CycT1 High ATP Kinase Assay
CDK9/CycT1-inhibitory activity of compounds of the present invention at a high ATP concentration after preincubation of enzyme and test compounds was quantified employing the CDK9/CycT1 TR-FRET assay as described in the following paragraphs.
Recombinant full-length His-tagged human CDK9 and CycT1, expressed in insect cells and purified by Ni-NTA affinity chromatography, were purchase from Invitrogen (Cat. No PV4131). As substrate for the kinase reaction biotinylated peptide biotin-Ttds-YISPLKSPYKISEG (C-terminus in amid form) was used which can be purchased e.g. from the company JERINI peptide technologies (Berlin, Germany). For the assay 50 nl of a 100 fold concentrated solution of the test compound in DMSO was pipetted into a black low volume 384 well microtiter plate (Greiner Bio-One, Frickenhausen, Germany), 2 μl of a solution of CDK9/CycT1 in aqueous assay buffer [50 mM Tris/HCl pH 8.0, 10 mM MgCl2, 1.0 mM dithiothreitol, 0.1 mM sodium ortho-vanadate, 0.01% (v/v) Nonidet-P40 (Sigma)] were added and the mixture was incubated for 15 min at 22° C. to allow pre-binding of the test compounds to the enzyme before the start of the kinase reaction. […] The concentration of CDK9/CycT1 was adjusted depending of the activity of the enzyme lot and was chosen appropriate to have the assay in the linear range, typical concentrations were in the range of 0.5 μg/mL. The reaction was stopped by the addition of 5 μl of a solution of TR-FRET detection reagents (0.2 μM streptavidine-XL665 [Cisbio Bioassays, Codolet, France] and 1 nM anti-RB(pSer807/pSer811)-antibody from BD Pharmingen [#558389] and 1.2 nM LANCE EU-W1024 labeled anti-mouse IgG antibody [Perkin-Elmer, product no. AD0077]) in an aqueous EDTA-solution (100 mM EDTA, 0.2% (w/v) bovine serum albumin in 100 mM HEPES pH 7.5).
The resulting mixture was incubated 1 h at 22° C. to allow the formation of complex between the phosphorylated biotinylated peptide and the detection reagents. Subsequently the amount of phosphorylated substrate was evaluated by measurement of the resonance energy transfer from the Eu-chelate to the streptavidine-XL. Therefore, the fluorescence emissions at 620 nm and 665 nm after excitation at 350 nm was measured in a HTRF reader, e.g. a Rubystar (BMG Labtechnologies, Offenburg, Germany) or a Viewlux (Perkin-Elmer). The ratio of the emissions at 665 nm and at […] was taken as the measure for the amount of phosphorylated substrate. The data were normalised (enzyme reaction without inhibitor=0% inhibition, all other assay components but no enzyme=100% inhibition).

Caco-2 cells = test: Proliferation assay Caco-2; assay type: cell-based, human; details: 4 days, crystal violet, read-out: Inhibition of Caco-2 cell proliferation IC50
Description: (§1) Cultivated tumour cells (HeLa, human cervical tumour cells, ATCC CCL-2; NCI-H460, human non-small cell lung carcinoma cells, ATCC HTB-177; A2780, human ovarian carcinoma cells, ECACC #93112519; DU 145, hormone-independent human prostate carcinoma cells, ATCC HTB-81; HeLa-MaTu-ADR, multidrug-resistant human cervical carcinoma cells, EPO-GmbH Berlin; Caco-2, human colorectal carcinoma cells, ATCC HTB-37; B16F10, mouse melanoma cells, ATCC CRL-6475) were plated at a density of 5,000 cells/well (DU145, HeLa-MaTu-ADR), 3,000 cells/well (NCI-H460, HeLa), 2,500 cells/well (A2780), 1,500 cells/well (Caco-2), or 1,000 cells/well (B16F10) in a 96-well multititer plate in 200 μL of their respective growth medium supplemented 10% fetal calf serum. After 24 hours, the cells of one plate (zero-point plate) were stained with crystal violet (see below), while the medium of the other plates was replaced by fresh culture medium (200 μl), to which the test substances were added in various concentrations (0 μM, as well as in the range of 0.001-10 μM). The cells were incubated for 4 days in the presence of test substances. Cell proliferation was determined by staining the cells with crystal violet: the cells were fixed by adding 20 μl/measuring point of an 11% glutaric aldehyde solution for 15 minutes at room temperature. After three washing cycles of the fixed cells with water, the plates were dried at room temperature. The cells were stained by adding 100 μl/measuring point of a 0.1% crystal violet solution (pH 3.0). After three washing cycles of the stained cells with water, the plates were dried at room temperature. The dye was dissolved by adding 100 μl/measuring point of a 10% acetic acid solution. The extinction was determined by photometry at a wavelength of 595 nm. The change of cell number, in percent, was calculated by normalization of the measured values to the extinction values of the zero-point plate (=0%) and the extinction of the untreated (0 μm) cells (=100%). The IC50 values (inhibitory concentration at 50% of maximal effect) were determined by means of a 4 parameter fit. Non-adherent MOLM-13 human acute myeloid leukemia cells (DSMZ ACC 554) were seeded at a density of 5,000 cells/well in a 96-well multititer plate in 100 μL of growth medium supplemented 10% fetal calf serum. After 24 hours, cell viability of one plate (zero-point plate) was determined with the Cell Titre-Glo Luminescent Cell Viability Assay (Promega), while 50 μL of test compound containing medium was added to the wells of the other plates (final concentrations in the range of 0.001-1 μM and DMSO controls). Cell viability was assessed after 72-hour exposure with the Cell Titre-Glo Luminescent Cell Viability Assay (Promega). IC50 values (inhibitory concentration at 50% of maximal effect) were determined by means of a 4 parameter fit on measurement data which were normalized to vehicle (DMSO) treated cells (=100%) and measurement readings taken immediately before compound exposure (=0%).

NCI-H460 cells = test: Proliferation assay NCI-H460; assay type: cell-based, human; details: 4 days, crystal violet, read-out: Inhibition of NCI-H460 cell proliferation IC50
Description: as §1

DU145 cells = test: Proliferation assay DU145; assay type: cell-based, human; details: 4 days, crystal violet, read-out: Inhibition of DU145 cell proliferation IC50
Description: as §1

T1 sequence (P50750 whole entry): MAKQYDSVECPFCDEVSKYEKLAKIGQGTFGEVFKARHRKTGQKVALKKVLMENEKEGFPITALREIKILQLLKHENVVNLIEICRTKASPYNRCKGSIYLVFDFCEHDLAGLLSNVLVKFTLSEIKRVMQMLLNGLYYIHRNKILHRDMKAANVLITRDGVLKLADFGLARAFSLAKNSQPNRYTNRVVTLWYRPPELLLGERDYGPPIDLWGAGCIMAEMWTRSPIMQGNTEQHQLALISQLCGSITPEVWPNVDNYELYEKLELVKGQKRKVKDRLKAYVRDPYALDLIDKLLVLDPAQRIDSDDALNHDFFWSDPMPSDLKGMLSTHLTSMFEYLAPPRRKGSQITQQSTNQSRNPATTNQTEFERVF
T1 sequence (O60563 whole entry partner): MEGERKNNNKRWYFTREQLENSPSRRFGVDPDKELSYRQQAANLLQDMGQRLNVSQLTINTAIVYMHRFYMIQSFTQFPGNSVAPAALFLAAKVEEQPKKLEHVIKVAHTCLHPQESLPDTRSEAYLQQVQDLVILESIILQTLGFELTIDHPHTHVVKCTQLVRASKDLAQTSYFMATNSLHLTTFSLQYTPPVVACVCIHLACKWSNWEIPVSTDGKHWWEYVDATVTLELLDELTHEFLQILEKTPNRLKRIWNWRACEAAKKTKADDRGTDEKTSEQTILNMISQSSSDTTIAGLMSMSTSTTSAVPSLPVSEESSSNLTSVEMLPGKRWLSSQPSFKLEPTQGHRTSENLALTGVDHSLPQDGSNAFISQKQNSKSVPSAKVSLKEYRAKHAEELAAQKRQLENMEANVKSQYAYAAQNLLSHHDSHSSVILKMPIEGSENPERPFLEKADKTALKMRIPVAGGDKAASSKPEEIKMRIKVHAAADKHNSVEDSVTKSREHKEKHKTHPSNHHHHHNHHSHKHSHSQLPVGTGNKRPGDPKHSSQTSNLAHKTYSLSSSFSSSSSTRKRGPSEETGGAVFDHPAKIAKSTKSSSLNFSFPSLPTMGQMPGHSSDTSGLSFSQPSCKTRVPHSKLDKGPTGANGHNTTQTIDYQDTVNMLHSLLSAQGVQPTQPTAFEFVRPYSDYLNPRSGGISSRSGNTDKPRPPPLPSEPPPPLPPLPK

Compound	pIC50 (CDK9/CycT1)	Selectivity high ATP CDK9 over high ATP CDK2: IC50 (high ATP CDK2)/IC50 (high ATP CDK9) (CDK9/CycT1)	pIC50 (Caco-2 cells; Homo sapiens, Caco-2, 96 h)	pIC50 (NCI-H460 cells; Homo sapiens, NCI-H460, 96 h)	pIC50 (DU145 cells; Homo sapiens, DU-145, 96 h)	pIC50 (DU145 cells)	pIC50 (Caco-2 cells; trifluoroacetate)	pIC50 (NCI-H460 cells; trifluoroacetate)	pIC50 (DU145 cells; trifluoroacetate)
CS(=O)(Cc1cc2nc(c1)OCCCOc1cc(F)ccc1-c1cc(ncc1F)N2)=NC(=O)OCCCl (racemic) [Example 21, (rac)-2-chloroethyl [{[15,19-difluoro-3,4-dihydro-2H,11H-10,6-(azeno)-12,16-(metheno)-1,5,11,13-benzodioxadiazacyclooctadecin-8-yl]methyl}(methyl)oxido-λ^6-sulfanylidene]carbamate]	8.23	12.7	7.80	7.55	7.51	–	–	–	–
CS(=O)(Cc1cc2nc(c1)OCCCOc1cc(F)ccc1-c1cc(ncc1F)N2)=NS(=O)(=O)CCN (racemic) [Example 23, (rac)-2-amino-N-[{[15,19-difluoro-3,4-dihydro-2H,11H-10,6-(azeno)-12,16-(metheno)-1,5,11,13-benzodioxadiazacyclooctadecin-8-yl]methyl}(methyl)oxido-λ^6-sulfanylidene]ethanesulfonamide]	8.41	69.5	6.37	6.13	–	6.08	–	–	–
CS(=O)(Cc1cc2nc(c1)OCCCOc1cc(F)ccc1-c1cc(ncc1F)N2)=NS(=O)(=O)CCN.O=C(O)C(F)(F)F (racemic) [Example 24, (rac)-2-{[{[15,19-difluoro-3,4-dihydro-2H,11H-10,6-(azeno)-12,16-(metheno)-1,5,11,13-benzodioxadiazacyclooctadecin-8-yl]methyl}(methyl)oxido-λ^6-sulfanylidene]sulfamoyl}ethanaminium trifluoroacetate]	8.74	90.4	–	–	–	–	6.57	6.41	6.41
CS(=N)(=O)Cc1cc2nc(c1)OCCCOc1cc(F)ccc1-c1cc(ncc1F)N2 (single isomer, unassigned; enantiomer 1) [Example 6, 15,19-Difluoro-8-[(S-methylsulfonimidoyl)methyl]-3,4-dihydro-2H,11H-10,6-(azeno)-12,16-(metheno)-1,5,11,13-benzodioxadiazacyclooctadecine; Enantiomer 1]	8.96	35.4	8.30	7.85	8.40	–	–	–	–

Now from value to compound:

pIC50 (CDK9/CycT1)	Selectivity high ATP CDK9 over high ATP CDK2: IC50 (high ATP CDK2)/IC50 (high ATP CDK9) (CDK9/CycT1)	pIC50 (Caco-2 cells; Homo sapiens, Caco-2, 96 h)	pIC50 (NCI-H460 cells; Homo sapiens, NCI-H460, 96 h)	pIC50 (DU145 cells; Homo sapiens, DU-145, 96 h)	pIC50 (DU145 cells)	pIC50 (Caco-2 cells; trifluoroacetate)	pIC50 (NCI-H460 cells; trifluoroacetate)	pIC50 (DU145 cells; trifluoroacetate)	Compound
8.54	21.7	7.85	7.57	7.59	–	–	–	–	CC(=O)N=S(C)(=O)Cc1cc2nc(c1)OCCCOc1cc(F)ccc1-c1cc(ncc1F)N2 (racemic) [Example 18, (rac)-N-[{[15,19-difluoro-3,4-dihydro-2H,11H-10,6-(azeno)-12,16-(metheno)-1,5,11,13-benzodioxadiazacyclooctadecin-8-yl]methyl}(methyl)oxido-λ^6-sulfanylidene]acetamide]
8.72	81.7	7.48	7.31	7.11	–	–	–	–	CN=S(C)(=O)Cc1cc2nc(c1)OCCCOc1cc(F)ccc1-c1cc(ncc1F)N2 (racemic) [Example 19, (rac)-8-[(N,S-dimethylsulfonimidoyl)methyl]-15,19-difluoro-3,4-dihydro-2H,11H-10,6-(azeno)-12,16-(metheno)-1,5,11,13-benzodioxadiazacyclooctadecine]
8.47	13.2	7.62	7.46	7.26	–	–	–	–	CCOC(=O)N=S(C)(=O)Cc1cc2nc(c1)OCCCOc1cc(F)ccc1-c1cc(ncc1F)N2 (racemic) [Example 20, (rac)-ethyl [{[15,19-difluoro-3,4-dihydro-2H,11H-10,6-(azeno)-12,16-(metheno)-1,5,11,13-benzodioxadiazacyclooctadecin-8-yl]methyl}(methyl)oxido-λ^6-sulfanylidene]carbamate]
8.57	71.6	7.57	7.44	7.40	–	–	–	–	CS(=O)(=O)N=S(C)(=O)Cc1cc2nc(c1)OCCCOc1cc(F)ccc1-c1cc(ncc1F)N2 (racemic) [Example 22, (rac)-N-[{[15,19-difluoro-3,4-dihydro-2H,11H-10,6-(azeno)-12,16-(metheno)-1,5,11,13-benzodioxadiazacyclooctadecin-8-yl]methyl}(methyl)oxido-λ^6-sulfanylidene]methanesulfonamide]
8.52	6.1	7.33	6.96	6.91	–	–	–	–	CS(=O)(Cc1cc2nc(c1)OCCCOc1cc(F)ccc1-c1cc(ncc1F)N2)=NC(=O)OCCN (racemic) [Example 25, (rac)-2-aminoethyl [{[15,19-difluoro-3,4-dihydro-2H,11H-10,6-(azeno)-12,16-(metheno)-1,5,11,13-benzodioxadiazacyclooctadecin-8-yl]methyl}(methyl)oxido-λ^6-sulfanylidene]carbamate]
